According to patent US20250171438A1 (Agios Pharmaceuticals, Inc., priority 2022, published 2025):

Target: T1, human PAH with the R408W mutation (Homo sapiens, UniProt P00439, R408W)
T1 construct: expressed in transfected cells
T1 sequence (P00439 1-452 R408W): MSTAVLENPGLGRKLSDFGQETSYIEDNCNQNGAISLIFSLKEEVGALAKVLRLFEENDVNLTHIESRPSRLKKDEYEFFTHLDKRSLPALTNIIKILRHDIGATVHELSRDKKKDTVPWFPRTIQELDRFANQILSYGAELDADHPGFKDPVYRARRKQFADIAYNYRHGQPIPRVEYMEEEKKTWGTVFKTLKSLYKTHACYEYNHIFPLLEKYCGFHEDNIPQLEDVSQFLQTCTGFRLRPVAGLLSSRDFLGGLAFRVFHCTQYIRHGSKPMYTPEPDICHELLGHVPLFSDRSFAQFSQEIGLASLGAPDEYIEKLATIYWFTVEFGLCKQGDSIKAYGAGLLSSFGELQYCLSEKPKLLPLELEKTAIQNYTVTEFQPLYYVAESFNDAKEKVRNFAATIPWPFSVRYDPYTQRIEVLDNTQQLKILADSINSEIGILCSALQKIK
Assay: Cell Based Phenylalanine Flux Assay
Details: A375 cells expressing human R408W PAH; 24 hrs compound incubation; 13C-Tyrosine by LC-MS; average where tested multiple times; read-out: AC50

| AC50 [nM] | Compound |
| --- | --- |
| 1000 to 5000 | O=C(c1cn(CC(F)(F)F)nc1Cl)N1CCc2[nH]cnc2[C@@H]1c1nc2c(F)cccc2s1 [Example 1763, (R)-(3-chloro-1-(2,2,2-trifluoroethyl)-1H-pyrazol-4-yl)(4-(4-fluorobenzo[d]thiazol-2-yl)-6,7-dihydro-1H-imidazo[4,5-c]pyridin-5(4H)-yl)methanone] |
| 500 to 1000 | O=C(c1cn(CC(F)(F)F)nc1Cl)N1CCc2[nH]cnc2[C@H]1c1nc2c(F)cccc2s1 [Example 1764, (S)-(3-chloro-1-(2,2,2-trifluoroethyl)-1H-pyrazol-4-yl)(4-(4-fluorobenzo[d]thiazol-2-yl)-6,7-dihydro-1H-imidazo[4,5-c]pyridin-5(4H)-yl)methanone] |
| 500 to 1000 | O=C(c1cnn(-c2ccccn2)c1Cl)N1CCc2[nH]cnc2[C@H]1c1nc2c(F)cccc2s1 [Example 1765] |
| 1000 to 5000 | O=C(c1cnn(-c2ccccn2)c1Cl)N1CCc2[nH]cnc2[C@@H]1c1nc2c(F)cccc2s1 [Example 1766, (R)-(5-chloro-1-(pyridin-2-yl)-1H-pyrazol-4-yl)(4-(4-fluorobenzo[d]thiazol-2-yl)-6,7-dihydro-1H-imidazo[4,5-c]pyridin-5(4H)-yl)methanone] |
| 1000 to 5000 | O=C(c1nnc(-c2ccc(C(F)(F)F)cc2)o1)N1CCc2[nH]cnc2[C@@H]1c1nc2ccccc2s1 [Example 1767, (R)-(4-(benzo[d]thiazol-2-yl)-6,7-dihydro-1H-imidazo[4,5-c]pyridin-5(4H)-yl)(5-(4-(trifluoromethyl)phenyl)-1,3,4-oxadiazol-2-yl)methanone] |
| 500 to 1000 | O=C(c1nnc(-c2ccc(C(F)(F)F)cc2)o1)N1CCc2[nH]cnc2[C@H]1c1nc2ccccc2s1 [Example 1768] |
| 500 to 1000 | O=C(c1cn(-c2ccccn2)nc1Cl)N1CCc2[nH]cnc2[C@H]1c1nc2c(F)cccc2s1 [Example 1769] |
| 1000 to 5000 | O=C(c1cn(-c2ccccn2)nc1Cl)N1CCc2[nH]cnc2[C@@H]1c1nc2c(F)cccc2s1 [Example 1770, (R)-(3-chloro-1-(pyridin-2-yl)-1H-pyrazol-4-yl)(4-(4-fluorobenzo[d]thiazol-2-yl)-6,7-dihydro-1H-imidazo[4,5-c]pyridin-5(4H)-yl)methanone] |
| < 500 | O=C(c1oc(OCCC(F)(F)F)nc1C(F)F)N1CCc2[nH]cnc2[C@@H]1c1nc2ccccc2s1 [Example 1771, (R)-(4-(benzo[d]thiazol-2-yl)-6,7-dihydro-1H-imidazo[4,5-c]pyridin-5(4H)-yl)(4-(difluoromethyl)-2-(3,3,3-trifluoropropoxy)oxazol-5-yl)methanone] |
| < 500 | O=C(c1oc(OCCC(F)(F)F)nc1C(F)F)N1CCc2[nH]cnc2[C@H]1c1nc2ccccc2s1 [Example 1772] |
| < 500 | CC(C)(O)c1nc(C(F)F)c(C(=O)N2CCc3[nH]cnc3[C@H]2c2nc3c(F)cccc3s2)o1 [Example 1773, (S)-(4-(difluoromethyl)-2-(2-hydroxypropan-2-yl)oxazol-5-yl)(4-(4-fluorobenzo[d]thiazol-2-yl)-6,7-dihydro-1H-imidazo[4,5-c]pyridin-5(4H)-yl)methanone] |
| 1000 to 5000 | CC(C)(O)c1nc(C(F)F)c(C(=O)N2CCc3[nH]cnc3[C@@H]2c2nc3c(F)cccc3s2)o1 [Example 1774, (R)-(4-(difluoromethyl)-2-(2-hydroxypropan-2-yl)oxazol-5-yl)(4-(4-fluorobenzo[d]thiazol-2-yl)-6,7-dihydro-1H-imidazo[4,5-c]pyridin-5(4H)-yl)methanone] |
| 500 to 1000 | COCc1nc(Br)c(C(=O)N2CCc3[nH]cnc3[C@@H]2c2nc3c(F)cccc3s2)o1 [Example 1775, (R)-(4-bromo-2-(methoxymethyl)oxazol-5-yl)(4-(4-fluorobenzo[d]thiazol-2-yl)-6,7-dihydro-1H-imidazo[4,5-c]pyridin-5(4H)-yl)methanone] |
| < 500 | COCc1nc(Br)c(C(=O)N2CCc3[nH]cnc3[C@H]2c2nc3c(F)cccc3s2)o1 [Example 1776] |
| < 500 | O=C(c1nnc(-c2cnn(C(F)F)c2)o1)N1CCc2[nH]cnc2[C@H]1c1nc2ccccc2s1 [Example 1777] |
| > 5000 | O=C(c1nnc(-c2cnn(C(F)F)c2)o1)N1CCc2[nH]cnc2[C@@H]1c1nc2ccccc2s1 [Example 1778, (R)-(4-(benzo[d]thiazol-2-yl)-6,7-dihydro-1H-imidazo[4,5-c]pyridin-5(4H)-yl)(5-(1-(difluoromethyl)-1H-pyrazol-4-yl)-1,3,4-oxadiazol-2-yl)methanone] |
| < 500 | N#Cc1nn2cc(Br)ccc2c1C(=O)N1CCc2[nH]cnc2[C@H]1c1nc2ccccc2s1 [Example 1779, (S)-3-(4-(benzo[d]thiazol-2-yl)-4,5,6,7-tetrahydro-1H-imidazo[4,5-c]pyridine-5-carbonyl)-6-bromopyrazolo[1,5-a]pyridine-2-carbonitrile] |

| AC50 [nM] | Compound |
| --- | --- |
| 1000 to 5000 | N#Cc1nn2cc(Br)ccc2c1C(=O)N1CCc2[nH]cnc2[C@@H]1c1nc2ccccc2s1 [Example 1780, (R)-3-(4-(benzo[d]thiazol-2-yl)-4,5,6,7-tetrahydro-1H-imidazo[4,5-c]pyridine-5-carbonyl)-6-bromopyrazolo[1,5-a]pyridine-2-carbonitrile] |
| < 500 | CN(C)Cc1nc(C(F)F)c(C(=O)N2CCc3[nH]cnc3[C@H]2c2nc3ccccc3s2)o1 [Example 1781] |
| 500 to 1000 | CN(C)Cc1nc(C(F)F)c(C(=O)N2CCc3[nH]cnc3[C@@H]2c2nc3ccccc3s2)o1 [Example 1782, (R)-(4-(benzo[d]thiazol-2-yl)-6,7-dihydro-1H-imidazo[4,5-c]pyridin-5(4H)-yl)(4-(difluoromethyl)-2-((dimethylamino)methyl)oxazol-5-yl)methanone] |
| < 500 | Cc1cc(F)ccc1-c1nnc(C(=O)N2CCc3[nH]cnc3[C@H]2c2nc3ccccc3s2)o1 [Example 1783] |
| > 5000 | Cc1cc(F)ccc1-c1nnc(C(=O)N2CCc3[nH]cnc3[C@@H]2c2nc3ccccc3s2)o1 [Example 1784, (R)-(4-(benzo[d]thiazol-2-yl)-6,7-dihydro-1H-imidazo[4,5-c]pyridin-5(4H)-yl)(5-(4-fluoro-2-methylphenyl)-1,3,4-oxadiazol-2-yl)methanone] |
| < 500 | O=C(c1oc(C2CC(F)(F)C2)nc1C(F)F)N1CCc2[nH]cnc2[C@@H]1c1nc2ccccc2s1 [Example 1785, (R)-(4-(benzo[d]thiazol-2-yl)-6,7-dihydro-1H-imidazo[4,5-c]pyridin-5(4H)-yl)(2-(3,3-difluorocyclobutyl)-4-(difluoromethyl)oxazol-5-yl)methanone] |
| < 500 | O=C(c1oc(C2CC(F)(F)C2)nc1C(F)F)N1CCc2[nH]cnc2[C@H]1c1nc2ccccc2s1 [Example 1786] |
| 1000 to 5000 | Cn1nc(C(F)(F)F)cc1C(=O)N1CCc2[nH]cnc2[C@H]1c1nc2c(F)cccc2s1 [Example 1787, (S)-(4-(4-fluorobenzo[d]thiazol-2-yl)-6,7-dihydro-1H-imidazo[4,5-c]pyridin-5(4H)-yl)(1-methyl-3-(trifluoromethyl)-1H-pyrazol-5-yl)methanone] |
| > 5000 | Cn1nc(C(F)(F)F)cc1C(=O)N1CCc2[nH]cnc2[C@@H]1c1nc2c(F)cccc2s1 [Example 1788, (R)-(4-(4-fluorobenzo[d]thiazol-2-yl)-6,7-dihydro-1H-imidazo[4,5-c]pyridin-5(4H)-yl)(1-methyl-3-(trifluoromethyl)-1H-pyrazol-5-yl)methanone] |
| 1000 to 5000 | O=C(c1nnc(OCCC(F)(F)F)o1)N1CCc2[nH]cnc2[C@@H]1c1nc2ccccc2s1 [Example 1789, (R)-(4-(benzo[d]thiazol-2-yl)-6,7-dihydro-1H-imidazo[4,5-c]pyridin-5(4H)-yl)(5-(3,3,3-trifluoropropoxy)-1,3,4-oxadiazol-2-yl)methanone] |
| 500 to 1000 | O=C(c1nnc(OCCC(F)(F)F)o1)N1CCc2[nH]cnc2[C@H]1c1nc2ccccc2s1 [Example 1790] |
| 1000 to 5000 | O=C(c1nnc(-n2cccn2)o1)N1CCc2[nH]cnc2[C@@H]1c1nc2ccccc2s1 [Example 1791, (R)-(5-(1H-pyrazol-1-yl)-1,3,4-oxadiazol-2-yl)(4-(benzo[d]thiazol-2-yl)-6,7-dihydro-1H-imidazo[4,5-c]pyridin-5(4H)-yl)methanone] |
| < 500 | O=C(c1nnc(-n2cccn2)o1)N1CCc2[nH]cnc2[C@H]1c1nc2ccccc2s1 [Example 1792] |
| < 500 | O=C(c1nnc(-c2cnn(CC(F)(F)F)c2)o1)N1CCc2[nH]cnc2[C@H]1c1nc2ccccc2s1 [Example 1793, [(4S)-4-(1,3-benzothiazol-2-yl)-1,4,6,7-tetrahydroimidazo[4,5-c]pyridin-5-yl]-[5-[1-(2,2,2-trifluoroethyl)pyrazol-4-yl]-1,3,4-oxadiazol-2-yl]methanone] |
| 1000 to 5000 | O=C(c1nnc(-c2cnn(CC(F)(F)F)c2)o1)N1CCc2[nH]cnc2[C@@H]1c1nc2ccccc2s1 [Example 1794, [(4R)-4-(1,3-benzothiazol-2-yl)-1,4,6,7-tetrahydroimidazo[4,5-c]pyridin-5-yl]-[5-[1-(2,2,2-trifluoroethyl)pyrazol-4-yl]-1,3,4-oxadiazol-2-yl]methanone] |
| < 500 | O=C(c1oc(-c2ccccn2)nc1C(F)F)N1CCc2[nH]cnc2[C@H]1c1nc2ccccc2s1 [Example 1795] |
| < 500 | O=C(c1oc(-c2ccccn2)nc1C(F)F)N1CCc2[nH]cnc2[C@@H]1c1nc2ccccc2s1 [Example 1796, (R)-(4-(benzo[d]thiazol-2-yl)-6,7-dihydro-1H-imidazo[4,5-c]pyridin-5(4H)-yl)(4-(difluoromethyl)-2-(pyridin-2-yl)oxazol-5-yl)methanone] |
